From patent US12583856B2, “Inhibitors of protein kinase A” (Blueprint Medicines Corporation, priority 2021, dated 2026)

Experiments:
[1] = tested on: PKA (phosphorylation of VASP on Serine 157); test: Cellular potency assay: P-VASP(157) HTRF in Forskolin-stimulated Huh7 cells; assay type: cell-based; conditions: Homo sapiens, Huh-7, 4 hours compound, 5 μM Forskolin 30 minutes, read-out: Phos VASP(S157) IC50
Description: PKA directly phosphorylate VASP on Serine 157. Phosphorylation of VASP on Serine 157. P-VASP(157) was therefore used as a readout of PKA cellular activity. P-VASP(157) was detected with a HTRF assay, which is based on a TR-FRET sandwich immunoassay-based format comprising two specific anti-VASP antibodies following the manufactors protocol (Cisbio, Catalog No. 63ADK066PEH). PKA was activated in the assay by the addition of Forskolin (Sigma-Aldrich, Catalog No. F3917).
Dose response in Forskolin-stimulated human Huh7 cells was measured as follows. Briefly, Huh7 cells were plated at a density of 2×10^4 cells per well in a 384-well opti-well cell culture plate in 15 μl of serum- and phenol-free Dulbecco's Modified Eagle Medium (DMEM, Gibco Catalog No. 21063-029), and incubated for over night at 37° C., 5% CO2. The next day, 3 μl of a dosed concentration series of test compound (0.24%) DMSO final concentration) was added to the wells, and the cells were incubated for an additional 4 hours at 37° C., 5% CO2. 2 μl of Forskolin was added at a final concentration of 5 μM and the plates were incubated for 30 minutes at 37° C., 5% CO2. 5 μl of lysis buffer containing 1% HALT protease cocktail inhibitors (ThermoFisher, Catalog No. 78430), was added to the cells and the mixture was incubated under gentle shaking for 30 min at room temperature. 10 μl of this lysate was transferred to a 384-well proxi plate and 2.5 μL of the premixed antibody solution was added. An antibody solution was prepared by combining phopho-VASP cryptate antibody and phospho-VASP d2 antibody, at twenty-fold dilution into a buffer solution following the manufactors' protocol. The lysate and antibody mixture was incubated for either 3 h at room temperature or overnight at 4° C. The fluorescence emission at two different wavelengths (665 nm and 620 nm) was read on an EnVision instrument.

PRKACA = biological target: T1, PRKACA (Homo sapiens, UniProt P17612); test: PRKACA assay at Km (EZ Reader 2 electrophoretic mobility shift); assay type: biochemical; conditions: 5 μM ATP (Km), 1 μM Kemptide, 90 minutes at 25 C; read-out: Enz PRKACA IC50
T1 construct: purchased Millipore 539482
Method: A Perkin Elmer electrophoretic mobility shift platform (the EZ Reader 2) was used to assess the activity of test compounds against a kinase of interest. Fluorescently labeled substrate peptide was incubated in the presence of kinase, ATP, and the test compound, so that a portion of the peptide was phosphorylated by the enzyme. At the end of the reaction, the mix of phosphorylated (product) and non-phosphorylated (substrate) peptide containing solutions was passed through the microfluidic system of the Perkin Elmer EZ Reader 2 under an applied potential difference. The presence of the phosphate group on the product peptide provided a difference in mass and charge between those of the substrate peptide, resulting in a separation of the substrate and product pools in the sample. As the stopped solutions passed under the instrument's LED light the phosphorylated and un-phosphorylated fluorophore bound peptides were detected and resolved as separate peaks. The ratio between these peaks therefore reflected the test compound's impact on the kinase at that concentration in that well under those conditions.
PRKACA assay at Km: In each well of a 384-well plate, 0.007 ng/ul (0.18 nM) of PRKACA enzyme (Millipore: 539482) was incubated in a total of 12.5 μl of buffer (100 mM HEPES pH 7.5, 0.015% Brij 35, 10 mM MgCl2, 1 mM DTT) with 1 μM Kemptide peptide substrate (5-FAM-LRRASLG) (Anaspec 29933) and 5 μM ATP at 25 C for 90 minutes in the presence or absence of a dosed concentration series of test compounds (1% DMSO final concentration). The reaction was stopped by the addition of 80 μl of Stop buffer (100 mM HEPES pH 7.5, 0.015% Brij 35, 35 mM EDTA and 0.2% of Coating Reagent 3 (Perkin Elmer)). The plate was then read on the EZ Reader 2 (protocol settings: −2.0 psi, upstream voltage −700, downstream voltage −2700, post sample sip 60 seconds). Data was normalized to 0% and 100% inhibition controls and the IC50 calculated using a 4-parameter fit using GraphPad Prism.

SMILES	IC50 [1] [nM]	IC50 (PRKACA) [nM]
O=C(N[C@H]1CCc2cccc(F)c21)c1ccc(-c2ccnc3[nH]ccc23)nc1 [Compound 106]	0.01 to 100	≤ 1
O=C(N[C@H]1C[C@H](O)c2cccc(F)c21)c1ccc(-c2ccnc3[nH]ccc23)nc1 (single isomer, unassigned) [Compound 118]	0.01 to 100	≤ 1
CN(C)C(=O)[C@H]1N([C@@H]2Cc3cccc(Cl)c3[C@H]2NC(=O)c2ccc(-c3ccnc4[nH]ccc34)nc2)CC1(C)C [Compound 192, N-[(1R,2R)-7-Chloro-2-[(2S)-2-(dimethylcarbamoyl)-3,3-dimethylazetidin-1-yl]-2,3-dihydro-1H-inden-1-yl]-6-{1H-pyrrolo[2,3-b]pyridin-4-yl}pyridine-3-carboxamide]	< 50	≤ 1
Cc1c[nH]c2nccc(-c3ccc(C(=O)N[C@@H]4c5c(F)cccc5C[C@H]4N4CC(C)C4)cn3)c12 [Compound 166]	0.01 to 100	≤ 1
C[C@@H]1c2cccc(F)c2[C@@H](NC(=O)c2ccc(-c3ccnc4[nH]ccc34)nc2)[C@H]1O (single isomer, unassigned) [Compound 122]	< 50	≤ 1
C[C@H]1Oc2ccc(F)c(F)c2[C@@H](NC(=O)c2ccc(-c3ccnc4[nH]ccc34)nc2)[C@@H]1O [Compound 149]	< 50	≤ 1
O=C(N[C@H]1CCc2ccc(F)cc21)c1ccc(-c2ccnc3[nH]ccc23)nc1 [Compound 105, N-[(1S)-6-Fluoro-2,3-dihydro-1H-inden-1-yl]-6-{1H-pyrrolo[2,3-b]pyridin-4-yl}pyridine-3-carboxamide]	0.01 to 100	1.01 to 5
O=C(N[C@H]1C[C@H](O)c2cc(C(F)F)cc(F)c21)c1ccc(-c2ccnc3[nH]ccc23)nc1 [Compound 155]	< 50	≤ 1
O=C(N[C@@H]1c2c(ccc(F)c2F)C[C@H]1N1CCCC1)c1ccc(-c2ccnc3[nH]cc(F)c23)nc1 [Compound 179]	< 50	≤ 1
O=C(N[C@@H]1c2ccc(C(F)F)cc2C[C@H]1N1CC[C@H](F)C1)c1ccc(-c2ccnc3[nH]ccc23)nc1 [Compound 183]	0.01 to 100	1.01 to 5
O=C(N[C@@H]1c2c(Cl)cccc2C[C@H]1N1C[C@@H](O)[C@@H](F)C1)c1ccc(-c2ccnc3[nH]ccc23)nc1 [Compound 187]	> 100	1.01 to 5
O=C(N[C@@H]1c2c(ccc(F)c2Cl)C[C@H]1N1CCCC1)c1ccc(-c2ccnc3[nH]ccc23)nc1 [Compound 177]	< 50	≤ 1
O=C(N[C@@H]1c2ccccc2C[C@H]1N1CC[C@H](F)C1)c1ccc(-c2ccnc3[nH]ccc23)nc1 [Compound 158]	0.01 to 100	≤ 1
CN(C)C(=O)[C@H]1N([C@@H]2Cc3cccc(Cl)c3[C@H]2NC(=O)c2ccc(-c3ccnc4[nH]ccc34)cn2)CC1(C)C [Compound 193]	< 50	≤ 1
CO[C@@H]1CCN([C@@H]2Cc3ccccc3[C@H]2NC(=O)c2ccc(-c3ccnc4[nH]ccc34)nc2)C1 [Compound 163]	0.01 to 100	≤ 1
O=C(N[C@@H]1c2c(ccc(F)c2F)C[C@@H]1O)c1ccc(-c2ccnc3[nH]ccc23)nc1 [Compound 132, N-[(1R,2S)-6,7-Difluoro-2-hydroxy-2,3-dihydro-1H-inden-1-yl]-6-{1H-pyrrolo[2,3-b]pyridin-4-yl}pyridine-3-carboxamide]	< 50	≤ 1
O=C(N[C@@H]1c2ccccc2OC[C@H]1F)c1ccc(-c2ccnc3[nH]ccc23)cc1 [Compound 116, N-[(3S,4R)-3-Fluoro-3,4-dihydro-2H-1-benzopyran-4-yl]-4-{1H-pyrrolo[2,3-b]pyridin-4-yl}benzamide]	0.01 to 100	≤ 1

SMILES	IC50 [1] [nM]	IC50 (PRKACA) [nM]
O=C(N[C@@H]1c2c(Cl)cccc2C[C@H]1N1C[C@@H](O)[C@H](F)C1)c1ccc(-c2ccnc3[nH]ccc23)nc1 [Compound 184]	–	1.01 to 5
C[C@H]1Oc2cccc(F)c2[C@@H](NC(=O)c2ccc(-c3ccnc4[nH]ccc34)nc2)[C@@H]1O [Compound 137]	0.01 to 100	≤ 1
Cc1c[nH]c2nccc(-c3ccc(C(=O)N[C@@H]4c5c(Cl)cccc5C[C@H]4N4CC[C@H](F)C4)cn3)c12 [Compound 182]	0.01 to 100	≤ 1
O=C(N[C@@H]1c2ccccc2C[C@H]1N1CCC1)c1ccc(-c2ccnc3[nH]ccc23)nc1 [Compound 133]	0.01 to 100	1.01 to 5
O=C(N[C@@H]1c2c(F)cccc2OC[C@@H]1O)c1ccc(-c2ccnc3[nH]ccc23)cc1 [Compound 124]	< 50	≤ 1
CC1CN([C@@H]2Cc3ccccc3[C@H]2NC(=O)c2ccc(-c3ccnc4[nH]ccc34)nc2)C1 [Compound 145]	0.01 to 100	≤ 1
Cc1c[nH]c2nccc(-c3ccc(C(=O)N[C@H]4CCOc5cc(F)cc(F)c54)cn3)c12 [Compound 138]	0.01 to 100	≤ 1
O=C(N[C@H]1CCOc2ccc(Cl)c(F)c21)c1ccc(-c2ccnc3[nH]ccc23)nc1 [Compound 143]	< 50	≤ 1
Cc1c[nH]c2nccc(-c3ccc(C(=O)N[C@@H]4c5c(ccc(F)c5Cl)C[C@H]4N4CCCC4)cn3)c12 [Compound 181]	< 50	≤ 1
Cc1c[nH]c2nccc(-c3ccc(C(=O)N[C@@H]4c5c(Cl)cccc5C[C@H]4N4CCCC4)cn3)c12 [Compound 174]	< 50	≤ 1
O=C(N[C@@H]1c2c(F)cc(C(F)F)cc2OC[C@@H]1O)c1ccc(-c2ccnc3[nH]ccc23)nc1 [Compound 164]	< 50	≤ 1
O=C(N[C@H]1C[C@@H](O)c2cc(C(F)F)cc(F)c21)c1ccc(-c2ccnc3[nH]ccc23)nc1 [Compound 156]	< 50	≤ 1
O=C(N[C@@H]1c2c(Cl)cccc2C[C@H]1N1CC[C@H](F)C1)c1ccc(-c2ccnc3[nH]ccc23)nc1 [Compound 178]	< 50	≤ 1
Cc1cccc2c1[C@@H](NC(=O)c1ccc(-c3ccnc4[nH]ccc34)nc1)[C@H](N1CCCC1)C2 [Compound 153]	0.01 to 100	≤ 1
O=C(N[C@@H]1c2c(Cl)cccc2C[C@H]1N1CCCC1)c1ccc(-c2ccnc3[nH]ccc23)nc1 [Compound 168]	< 50	≤ 1
O=C(N[C@H]1c2c(ccc(F)c2F)OC[C@H]1O)c1ccc(-c2ccnc3[nH]ccc23)nc1 (stereo in doubt) [Compound 140, N-[(3S,4S)-5,6-Difluoro-3-hydroxy-3,4-dihydro-2H-1-benzopyran-4-yl]-6-{1H-pyrrolo[2,3-b]pyridin-4-yl}pyridine-3-carboxamide]	0.01 to 100	≤ 1
CCN(CC)[C@@H]1Cc2ccccc2[C@H]1NC(=O)c1ccc(-c2ccnc3[nH]ccc23)nc1 [Compound 147]	< 50	1.01 to 5
